Values quoted from earlier work in patent publication US20100056546A1, “SULFONYLUREA INHIBITORS OF ATP-SENSITIVE POTASSIUM CHANNELS” (Auspex Pharmaceuticals, Inc., priority 2008, published 2010).

Details: compared with glipizide; Ambrogi et al. 1972

| Structure (SMILES) | activity relative to the parent compound |
| --- | --- |
| Cc1cnc(C(=O)NCCc2ccc(S(=O)(=O)NC(=O)N[C@H]3CCC[C@@H](O)C3)cc2)cn1 (relative stereo) [cis-3-hydroxy-glipizide] | significantly less active |
| Cc1cnc(C(=O)NCCc2ccc(S(=O)(=O)NC(=O)N[C@H]3CC[C@H](O)CC3)cc2)cn1 [trans-4-hydroxy-glipizide] | significantly less active |
